Test results: paper PMC7504435, “Combined Protein- and Ligand-Observed NMR Workflow to Screen Fragment Cocktails against Multiple Proteins: A Case Study Using Bromodomains” (Molecules, 2020)

What was measured:
[1] = target: T1, PfGCN5 bromodomain (Plasmodium falciparum, UniProt Q8IB67); assay: 1H CPMG NMR deconvolution of hit mixtures, PfGCN5; type: binding; conditions: 10 µM protein, 100 µM ligand
Description: (§1) The second step is a ^1H CPMG NMR deconvolution of the hit mixtures using the non-fluorine-labeled bromodomains. ^1H CPMG NMR employs a T2 filter to take advantage of the difference in transverse relaxation time between protein and small molecules to filter out the bound-state ligand(s). Unlike the PrOF NMR assay, a single protein is assayed in each experiment. A binding event is characterized by a decrease in ligand resonance intensity from the ligand alone spectrum to the ligand + protein spectrum. A hit is defined as a decrease in resonance intensity ≥ 20%. The ^1H CPMG NMR assay can be tuned by changing the protein or ligand concentration, filter length (Figure 1), or hit criteria depending on how stringent the desired hit rate is. The number of ^1H CPMG NMR deconvolution experiments is directly informed from the first step. If a mixture from the first step was only a hit for one protein, a single ^1H CPMG NMR deconvolution experiment is needed. If a mixture from the first step was a hit for both proteins, two separate ^1H CPMG NMR deconvolutions experiments are needed to determine the fragments that bind to each protein.
(§2) ^1H CPMG NMR. ^1H CPMG NMR screen data were acquired on Bruker Avance III HD 500 with the 5 mm Prodigy TCI cryoprobe inverse cryoprobe (^1H 2500:1 S/N). Competition ^1H CPMG NMR data were acquired on Bruker 700 MHz Avance with a CryoProbe 5 mm TXI (^1H S:N with H2O suppression (2mM sucrose) - 900:1) and excitation sculpting water suppression. Proteins were present at 10 µM in 50 mM phosphate, 100 mM NaCl, pH 7.4 in 100% D2O. In separate NMR tubes, a ^1H CPMG NMR pulse was applied to a 1) mixture of ligands (individual ligands present at 100 µM for the screen and 50 µM for competition experiments) and 2) ligands + protein. […] For the competition experiments, τ was increased to 4.0 ms.

[2] = target: BPTF bromodomain (Homo sapiens, UniProt Q12830); assay: 1H CPMG NMR deconvolution of hit mixtures, BPTF; type: binding; parameters: deconvolution of the hit mixtures using the non-fluorine-labeled bromodomains; made in house; host or cells: E. coli BL21(DE3); conditions: 10 µM protein, 100 µM ligand
Description: as §1, §2

[3] = target: BRD4 D1; conditions: previous screen; NC = noncompetitive with JQ1 in 1H CPMG competition; cited from earlier work
[4] = target: T1, PfGCN5 bromodomain; assay: biochemical; type: binding
Description: The screening workflow consists of two dependent steps: 1) a PrOF NMR screen of the 5FW-labeled proteins and a cocktail of 4–5 fragments in a single NMR tube; 2) a ^1H CPMG NMR binding assay to deconvolute the hit mixtures for each protein (Figure 1). In the first step, a dual-protein PrOF NMR spectrum was obtained in which 5FW-PfGCN5, 5FW-BPTF (~ 50 µM each) and mixtures of fragments (400 µM individual fragment) were present in the same NMR tube. […] Chemical shift perturbations indicating a ligand binding event were based on a prior cutoff of Δδ ≥ 0.030 ppm as the definition for a hit mixture. This cutoff was based on a statistical analysis of chemical shift perturbations from a prior BRD4 D1 fragment screen and are described further in the experimental section and in Table S2.
PrOF NMR. PrOF NMR spectra were obtained on a Bruker Avance III HD 500 with the 5 mm Prodigy TCI inverse cryoprobe (^19F S:N 2000:1). […] The DMSO concentration for all experiments was kept constant at 1%. […] For the PrOF NMR screen, 5FW-BPTF and 5FW-PfGCN5 (35–40 µM in 50 mM phosphate, 100 mM NaCl, pH 7.4) were tested with mixtures of 4–5 fragments, where each individual fragment was 400 µM. […] A 10 Hz line broadening was applied. Titrations were fit to Equation (2), where p is the protein concentration and L is the ligand concentration. (2) Δδ=Δδmax × (Kd+P+L ) − (((Kd + P + L )^2) − 4PL)/2P
A PrOF NMR binding event is characterized as a change in chemical shift (Δδ) from the protein-only spectrum to the protein + fragment mixture spectrum. We used a prior cutoff of Δδ ≥ 0.030 ppm as the definition of a hit mixture, based on a statistical analysis of chemical shift perturbations from a prior BRD4 D1 fragment screen.

T1 sequence (Q8IB67 entry or part of it): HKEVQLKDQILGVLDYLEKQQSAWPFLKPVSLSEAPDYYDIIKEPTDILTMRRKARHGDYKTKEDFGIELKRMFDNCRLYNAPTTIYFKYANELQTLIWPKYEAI

| BPTF CPMG % decrease [2] [%] | Structure (SMILES) | PfGCN5 CPMG % decrease [1] [%] | other results |
| --- | --- | --- | --- |
| 29 | CC(C)(C)OC(=O)N1CCCC(C(=O)O)C1 (centres unmarked) [Fragment F2158-1186] | – | – |
| 32 | COC(CNC(=O)C1CN(C(=O)c2cc(C)on2)C1)OC [Fragment F6125-0675] | – | – |
| 34 | CC(C)Nc1nc2c(c(=O)[nH]c(=O)n2C)n1CC(O)CO (centres unmarked) [Fragment F2477-0016] | – | – |
| 38 | CCOCCCNc1ncnc2c1cnn2C [Fragment F1852-0063] | – | – |
| – | COCCCn1c(C(=O)O)cc2c(=O)n(C)c(=O)n(C)c21 [Fragment F9995-1074] | 41 | – |
| – | CS(=O)(=O)NCC(c1ccoc1)N1CCSCC1 (centres unmarked) [Fragment F6353-5787] | 40 | – |
| 23 | CSCCC(C)(O)CNC(=O)NC1CCOCC1 (centres unmarked) [Fragment F6089-9820] | – | – |
| 63 | CC(C)(C)NC(=O)c1cnc2n(c1=O)CCS2 [Fragment F0550-0006] | – | – |
| 54 | c1cc(OCC2CO2)ccc1OCC1CO1 (centres unmarked) [Fragment F0777-0005] | – | – |
| 40 | Cc1csc(NC(=O)C2CCNCC2)n1.Cl [Fragment F2158-1471] | – | – |
| 23 | Cc1nnc(CN)o1.Cl [Fragment F2135-1033] | – | – |
| – | CC(C)C1NC(=O)CNC1=O (centres unmarked) [Fragment F2147-0955] | 50 | – |
| – | CC12CCC3(C)OCC(CO)(CO1)N23 (centres unmarked) [Fragment F1983-0015] | 50 | – |
| – | CC(C)CS(=O)(=O)C1CN(S(=O)(=O)C(C)C)C1 [Fragment F6442-1971] | 22 | – |
| 53 | CCCCC(=O)Nc1sc(C)c(C)c1C(N)=O [Fragment F2590-0203] | – | – |
| – | CCCCS(=O)(=O)N1CC(S(=O)(=O)CC(C)C)C1 [Fragment F6442-1973] | 26 | – |
| – | Cc1ccc(S(=O)(=O)O)cc1.N#CC1CNCCO1 [Fragment F8880-7458] | 24 | – |
| 46 | CCCSc1nnc2[nH]c(=O)c(C)c(C)n12 [Fragment F2513-0609] | – | – |
| – | CC(C)(C)OC(=O)N1CCC2CNCC21 (centres unmarked) [Fragment F1905-6593] | 21 | – |
| – | Cc1onc(N)c1S(=O)(=O)N1CCC(C)CC1 [Fragment F2158-1788] | 40 | – |

| BPTF CPMG % decrease [2] [%] | Structure (SMILES) | PfGCN5 CPMG % decrease [1] [%] | other results |
| --- | --- | --- | --- |
| 48 | OCC1CCCN1c1cccc(C(F)(F)F)n1 (centres unmarked) [Fragment F6541-4533] | – | – |
| – | CC(C)(C)C(=O)N1CCSC(c2ccccc2)CC1 (centres unmarked) [Fragment F6481-0067] | 53 | – |
| 55 | Cc1cc(-c2nnc(NC(=O)C3CC3)o2)nn1C [Fragment F5036-0073] | – | Kd [3]: 1200 µM |
| – | Cc1nc(N2CCCC2)nc(C)c1NS(C)(=O)=O [Fragment F6438-0300] | 42 | – |
| 33 | O=C1CSCCN1 [Fragment F0848-0336] | – | – |
| 36 | O=C(NCCC(O)C1CC1)Nc1ccccc1Cl (centres unmarked) [Fragment F6190-0472] | – | – |
| 46 | C=CCNC1CCN(C)C1=O (centres unmarked) [Fragment F1905-0298] | – | – |
| 36 | Cc1nnc(SCC(=O)N2CCCCCC2)n(N)c1=O [Fragment F1847-0012] | – | – |
| – | COc1ccccc1C(CNC(=O)C1CC1)OC (centres unmarked) [Fragment F6451-0004] | 26 | – |
| – | O=C1CCCC2CN(Cc3ccccc3)CC12 (centres unmarked) [Fragment F1905-6609] | 50 | – |
| 48 | CC(C)(C)C(O)CCNC(=O)COc1ccc(F)cc1 (centres unmarked) [Fragment F6190-0594] | – | – |
| – | COCC(=O)NC(C)Cc1ccc2c(c1)CCO2 (centres unmarked) [Fragment F6356-0896] | 25 | – |
| – | CCOC(=O)Nc1cc(-c2ccc(C)c(NS(C)(=O)=O)c2)nn2c(C)nnc12 [bromosporine, reference compound] | – | PrOF NMR titration with 5FW-PfGCN5, result in words [4]: slow exchange kinetics |
| – | Cc1cc(C(=O)N2CC(N3C(=O)CSC3=O)C2)n(C)n1 [Fragment F6473-4843] | 25 | – |
| 23 | CC(=O)NCC1COCCN1.CC(=O)NCC1COCCN1.Cl.Cl.Cl (centres unmarked) [Fragment F2147-1723] | – | – |
| – | CC(C)CC(=O)NCc1nccc(N(C)C)n1 [Fragment F6438-1301] | 50 | – |
| 29 | Cc1cc(C)n(CC2CCNCC2)n1.Cl.Cl [Fragment F2145-0759] | – | – |
| – | O=C(C1CC=CCC1)N1CCC(c2ccc3c(c2)OCO3)C1 (centres unmarked) [Fragment F6518-4331] | 58 | – |
| 23 | O=C1NCCN1C(=O)NCC(c1ccsc1)N1CCC1 (centres unmarked) [Fragment F6353-7315] | – | – |
| – | CCC(=O)NCc1nc(C)cc(N2CCOCC2)n1 [Fragment F6438-0864] | 67 | – |

| Structure (SMILES) | BPTF CPMG % decrease [2] [%] | PfGCN5 CPMG % decrease [1] [%] | other results |
| --- | --- | --- | --- |
| Cc1nc(NCCNC(=O)C(C)C)cc(N2CCCC2)n1 [Fragment F5626-0027] | 77 | 75 | – |
| COC(C)(CNS(C)(=O)=O)c1cccc(Cl)c1 (centres unmarked) [Fragment F6452-1288] | 32 | 57 | – |
| CCOC(=O)c1sc(NC(=O)C2CCOC2)cc1C (centres unmarked) [Fragment F0882-2747] | 54 | 63 | Kd [3]: 660 µM |
| Cc1nnc(C2CCN(C(=O)c3ccsc3)CC2)s1 [Fragment F5496-0578] | 55 | 83 | – |
| CCCCNc1nc2c([nH]1)c(=O)n(C)c(=O)n2C [Fragment F3176-0122] | 80 | 77 | Kd [3]: 2500 µM |
| CC(C)C(=O)N1CCN(c2cnnc(N(C)C)c2)CC1 [Fragment F6438-1468] | 62 | 100 | – |
| O=C(C1CC1)N1CCCC(Cc2nc(C3CC3)no2)C1 (centres unmarked) [Fragment F6497-0456] | 100 | 100 | – |
| CCOC(=O)c1c(NC(C)=O)sc(C)c1C [Fragment F0777-0038] | 100 | 100 | Kd [3]: 820 µM |
| CCC(C)Sc1nnc(-c2cn(C)nc2OC)n1CC (centres unmarked) [Fragment F5003-0141] | 52 | 36 | – |
| CCCCSc1nnc(-c2cn(C)nc2OC)n1CC [Fragment F5003-0140] | 52 | 36 | – |
| CCCC(=O)Nc1cc2c3c(c1)CC(=O)N3CCC2 [Fragment F2666-0003] | 54 | 100 | Kd [3]: 840 µM |
| CCNc1cc(NCCNC(=O)CC(C)C)nc(C)n1 [Fragment F5626-0058] | 50 | 47 | – |
| CC(C(=O)NCc1cnn2c1CCCC2)n1cccn1 (centres unmarked) [Fragment F6513-5793] | 72 | 49 | – |
| Cc1c(C(=O)O)n[nH]c1C1CC1 [Fragment F2185-0055] | 31 | 29 | – |
| C1CC2NCCOC2C1.Cl (centres unmarked) [Fragment F1905-0651] | 75 | – | – |
| CC(C)(C)OC(=O)N1CC(Oc2ncccn2)C1 [Fragment F2158-1792] | 54 | 68 | – |
| COc1ccc(C2CCCCN(S(C)(=O)=O)C2)cc1 (centres unmarked) [Fragment F6464-1254] | 69 | 33 | – |
| Cc1ccc(C)c(S(=O)(=O)N2CCCC2C(=O)O)c1 (centres unmarked) [Fragment F2189-0042] | 35 | 32 | – |
